Patent US20240307485A1, “WS635 USES THEREOF IN MEDICINE” (WATERSTONE PHARMACEUTICALS (WUHAN) CO., LTD., priority 2021, published 2024)
“Also recorded” adds a separate entry of the source.

Experiments:
angiogenesis = assay: Angiogenesis in rats; type: in vivo
[1] = Toxicity test of repeated oral administration for 9 days in rats; settings: rat, in vivo, read-out: NOAEL (No Observed Adverse Effect Level) dose
[2] = test system: wound healing model of SD rats; assay: Skin wound healing model in SD rats (full-thickness circular skin wound, 2 cm diameter); type: in vivo; settings: for wound area compared with the model group: once a day, WS635 oral 52.8 mg/kg, rb-bFGF external 262.5 IU/cm2, P<0.05, P<0.01; for wound healing rate over the administration cycle: once a day for 7 days, time course
Description: Eighteen 6-week-old male SD rats were randomly divided into 3 groups: model group, test article group and positive control group, with 6 rats in each group. Skin wound surgery was performed after anesthesia, and oral administration was started 2 h after skin wound formation. All rats were raised in a single cage. […]. The surgical details were as follows: All animals were anesthetized with 10% chloral hydrate solution (3 mL/kg) by intraperitoneal injection, their backs were depatured with pet shaving knives, and a circular mark with a diameter of 2 cm was made. After the skin was disinfected with alcohol, the full layer of skin was removed with surgical scissors along the marking line, and the wound surface was pressed to stop bleeding. The model group was orally given 10% DMSO corn oil, the test group was orally given WS635 (corn oil dissolved in 10% DMSO) at 52.8 mg/kg, and the positive control group was given 262.5 IU/cm2 (62.5 μL/cm^2) recombinant bovine basic fibroblast growth factor (rb-bFGF) external solution, once a day for 7 days. Digital photos were taken of the wound of each rat under the same conditions. The wound was recorded with plastic transparent paper, and the wound area was scanned by image J software after the wound was recorded with plastic transparent paper. Wound healing rate was calculated according to wound area (%)=(area after administration−area before administration)/area before administration 100%.

| Compound | angiogenesis (angiogenesis) | NOAEL at 9 days [1] [mg/kg/day] | wound area compared with the model group ([2]; Day 3) | wound area compared with the model group ([2]; Day 7) | wound healing effect of WS635 compared with rb-bFGF ([2]; WS635 oral 52.8 mg/kg vs rb-bFGF 262.5 IU/cm2, P>0.05, 52.8 mg/kg) | wound healing rate over the administration cycle [2] | wound healing (overall conclusion) ([2]; oral administration, SD rats) |
| --- | --- | --- | --- | --- | --- | --- | --- |
| C/C=C/C[C@@H](C)[C@@H](O)[C@H]1C(=O)N[C@@H](CC)C(=O)N(C)[C@H](SCCN(C)C)C(=O)N(C)[C@@H](CC(C)(C)O)C(=O)N[C@@H](C(C)C)C(=O)N(C)[C@@H](CC(C)C)C(=O)N[C@@H](C)C(=O)N[C@H](C)C(=O)N(C)[C@@H](CC(C)C)C(=O)N(C)[C@@H](CC(C)C)C(=O)N(C)[C@@H](C(C)C)C(=O)N1C [WS635, (3S,6S,9S,12R,15S,18S,21S,24S,27R,30S,33S)-27-((2-(dimethylamino)ethyl)thio)-30-ethyl-3 3-((1R,2R,E)-1-hydroxy-2-methylhex-4-en-1-yl)-24-(2-hydroxy-2-methylpropyl)-6,9,18-triisobutyl-3,21-diisopropyl-1,4,7,10,12,15,19,25,28-nonamethyl-1,4,7,10,13,16,19,22,25,28,31-undecaazacyclotritriacontan-2,5,8,11,14,17,20,23,26,29,32-undecaone] | significantly promote angiogenesis | 80 | decreased significantly | decreased significantly | equivalent to rb-bFGF; also recorded: no significant difference | enhances wound healing rate in a time-dependent manner; also recorded: increased with the extension of administration time | significantly promote wound healing |
| rb-bFGF: recombinant bovine basic fibroblast growth factor (rb-bFGF) external solution, positive control |  |  | decreased significantly | decreased significantly |  | increased with the extension of administration time |  |
